Assay results published in patent publication US20260309717A1, “PROXIMITY INDUCING SYSTEM AND USES THEREOF” (SORBONNE UNIVERSITE, priority 2022, published 2026).

Tests used:
Assay type in all cases: cell-based
Conditions in all cases: 10 μM
[1] = target: T1, mCherry-^FIREtag / ^FIREmate-ECFP-Giantin (Halorhodospira halophila, UniProt P16113, A30V/C69G/D97P/F96I, form not given/G21E/G25R/K17N/M100R/M109L/Q41L/Q99S/S72T/T101G/V83A/Y94W/Y98T); assay: Recruitment of cytoplasmic protein to the Golgi apparatus, HeLa cells
T1 construct: FIREmate-ECFP-Giantin(3131-3259) and mCherry-FIREtag in HeLa cells
T1 sequence (P16113 1-114 A30V/C69G/D97P/F96I/G21E/G25R/K17N/M100R/M109L/Q41L/Q99S/S72T/T101G/V83A/Y94W/Y98T): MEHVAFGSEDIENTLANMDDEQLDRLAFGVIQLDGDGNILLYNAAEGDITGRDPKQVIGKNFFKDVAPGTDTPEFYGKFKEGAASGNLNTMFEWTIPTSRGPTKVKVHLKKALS
Procedure: FIGS. 6A-E illustrate the recruitment of cytoplasmic proteins to the Golgi apparatus with the proximity inducing system described herein. FIG. 6A is a representation of the experimental design wherein HeLa cells co-expressing mCherry-^FIREtag and ^FIREmate-ECFP-Giantin were treated with 10 µM of match (either HBR-2,5DM or HMBR), and imaged by time-lapse confocal microscopy. FIGS. 6B-C are graphs showing the temporal evolution of the FIRE signal detected upon addition at 0 min of HBR-2,5DM (match1-6B) or HMBR (match2-6C). Data represents the mean values±SD of 10 cells from n=3 independent experiments (6B, D), or of 12 cells from n=3 independent experiments (6C, E). FIGS. 6D-E are sets of representative confocal micrographs of cells before (0 min) and after (5 min) addition of HBR-2,5DM (match1-6D) or HMBR (match2-6E) (mCherry: ex/em 561/606-675 nm; FIRE: ex/em 488/508-570 nm; ECFP: ex/em 445/455-499 nm). […] Scale bars are 20 μm.
(§1) The confocal micrographs were acquired on a Zeiss LSM 980 Laser Scanning Microscope equipped with a plan apochromat 63x/1.4 NA oil immersion objective. ZEN software was used to collect the data. The images were analyzed using Icy (2.4.0.0) and Fiji (Image J). In short, to track fluorescence signal in a specific organelle, a ROI (region of interest) was determined by masking the signal in the ECFP (Enhanced Cyan Fluorescent Protein) channel with the plug-in HK-means with the following parameters: intensity class equals 100, minimum object size (pixels or px) equals 500, maximum object size (px) equals 1500-3000. The signal intensity of the ROI was tracked over time for each channel by using plug-in Active Contours. The background signal was subtracted. Data were processed using GraphPad Prism v9.3.0.
(§2) To further evaluate the scope of the proximity inducing system described herein and show its versatility, ^FIREmate was anchored at the membrane of various organelles or cellular structures so that ^FIREmate faced the cytosol. ^FIREmate was thus fused: • to the N-terminus of the transmembrane domain (amino acid residues at positions 3131-3259) of Giantin for location at the cis-medial rims of the Golgi apparatus (FIG. 6A), • to the N-terminus of the transmembrane domain (amino acid residues at positions 100-134) of the cytochrome b5 (Cb5) for location at the endoplasmic reticulum membrane (FIG. 7A), and • to the C-terminus of the Lyn11 inner membrane targeting sequence for location at the plasma membrane (FIG. 8A).
(§3) For each construct, an ECFP was inserted between ^FIREmate and the other protein domain/sequence to monitor the localization of the resulting fusion protein (blue fluorescence). Each fusion protein was co-expressed in mammalian cells (HeLa cells or HEK293 cells as indicated) together with mCherry-^FIREtag (red fluorescence). […]

[2] = target: T2, mCherry-^FIREtag / ^FIREmate-ECFP-Cb5 (Halorhodospira halophila, UniProt P16113, A30V/C69G/D97P/F96I, form not given/G21E/G25R/K17N/M100R/M109L/Q41L/Q99S/S72T/T101G/V83A/Y94W/Y98T); assay: Recruitment of cytoplasmic protein to the endoplasmic reticulum, HeLa cells
T2 construct: FIREmate-ECFP-Cb5(100-134) and mCherry-FIREtag in HeLa cells
T2 sequence (P16113 1-114 A30V/C69G/D97P/F96I/G21E/G25R/K17N/M100R/M109L/Q41L/Q99S/S72T/T101G/V83A/Y94W/Y98T): T1 sequence (P16113 1-114 A30V/C69G/D97P/F96I/G21E/G25R/K17N/M100R/M109L/Q41L/Q99S/S72T/T101G/V83A/Y94W/Y98T)
Procedure: FIGS. 7A-E illustrate the recruitment of cytoplasmic proteins to the endoplasmic reticulum with the proximity inducing system described herein. FIG. 7A is a representation of the experimental design wherein HeLa cells co-expressing mCherry-^FIREtag and ^FIREmate-ECFP-Cb5 were treated with 10 μM of match (either HBR-2,5DM or HMBR), and imaged by time-lapse confocal microscopy. FIGS. 7B-C are graphs showing the temporal evolution of the FIRE signal detected upon addition at 0 min of HBR-2,5DM (match1-7C) or HMBR (match2-7D). Data represents the mean values±SD of 17 cells from n=3 independent experiments (7B, D), or of 18 cells from n=3 independent experiments (7C, E). FIGS. 7D-E are sets of representative confocal micrographs of cells before (0 min) and after (5 min) addition of HBR-2,5DM (match1-7D) or HMBR (match2-7E) (mCherry: ex/em 561/606-675 nm; FIRE: ex/em 488/508-570 nm; ECFP: ex/em 445/455-499 nm). […] Scale bars are 20 μm.
as §1, §2, §3

[3] = target: T1, mCherry-^FIREtag / ^FIREmate-ECFP-Giantin; assay: Reversibility of the ternary assembly (washout), time-lapse spinning-disk confocal microscopy, HeLa cells
Procedure: HeLa cells co-expressing mCherry-^FIREtag and ^FIREmate-ECFP-Giantin were treated with 10 μM HBR-2,5DM (match1), washed with HBR-2,5DM-free medium and then treated with 10 μM HBIR-3M. Cells were imaged by time-lapse spinning-disk confocal microscopy. FIGS. 9A-D are sets of representative confocal micrographs of untreated cells (9A), cells after addition of HBR-2,5DM (match1) (9B), cells after washout of HBR-2,5DM (match1) (9C), and cells after addition of HBIR-3M (9D). (mCherry: ex/em 561/606-675 nm; FIRE: ex/em 488/508-570 nm). Scale bars are 10 μm.
To test whether formation of the fluorescent ternary assembly could be reversed though removal of the fluorogen, the fusion proteins mCherry-^FIREtag (red fluorescence) and ^FIREmate-ECFP-Giantin (blue fluorescence) were co-expressed in Hela cells (FIG. 9A). Formation of a fluorescent ternary assembly between ^FIREtag, ^FIREmate and HBR-2,5DM was induced by addition of 10 μM of HBR-2,5DM (FIG. 9B). […] The ability to reverse the fluorescence ternary assembly at will allowed to induce repeated catch and release cycles through sequential addition and removal of HBR-2,5DM. The ability to control protein proximity through addition and removal of a molecular inducer of proximity is unprecedented and opens great prospect to control the proximity of two proteins with high temporal resolution.

Cc1cc(/C=C2\SC(=S)NC2=O)c(C)cc1O [HBR-2,5DM, (Z)-5-(4-hydroxy-2,5-dimethylbenzylidene)-2-thioxo-1,3-thiazolidin-4-one]
FIRE signal at the Golgi apparatus [1]: simultaneous appearance of green fluorescence | translocation of mCherry-^FIREtag to the Golgi apparatus [1]: rapid translocation of mCherry-^FIREtag to the organelle | FIRE signal at the endoplasmic reticulum [2]: simultaneous appearance of green fluorescence | translocation of mCherry-^FIREtag to the endoplasmic reticulum [2]: rapid translocation of mCherry-^FIREtag to the organelle | dissociation of the fluorescent ternary assembly after washout ([3]; then washing with HBR-2,5DM-free medium): rapid dissociation of the fluorescent ternary assembly | reversibility of the fluorescent ternary assembly ([3]; then washout): full reversibility
